One test has as its system db/db mice. Description: Oral dosing in female db/db mice. The format is in vivo. The following applies: Mus musculus, 1.0 mpk, % change compared to vehicle. As for the experimental part: The compound was prepared as suspensions in 0.5% hydroxypropylmethylcellulose (Dow Chemical, Midland, Mich.). The dosing volume was 10 mL/kg of body weight. […] Body weight was measured in the mornings on Day 1, prior to dosing, and on Day 12 before bleeding. 18-24 hours after the final dose for each group, the mice were anesthetized with CO2/O2 (70:30) and bled by retro-orbital sinus puncture into micro-tubes containing clog activator and then put in ice. The serum samples were prepared by centrifugation. Serum glucose and triglycerides were determined by using COBAS Mira Plus blood chemistry analyzer (Roche Diagnostics, N.J.). Serum insulin was measured by using ALPCO insulin ELISA kit.
Statistical analysis was performed using the program Prism (Graphpad, Monrovia, Calif.) and performing one-way ANOVA with a Dunnet's multiple comparison test.

A further test has as its target T1, PPARα (Rattus norvegicus, UniProt P37230).
T1 construct: H4IIE rat hepatoma cell line was obtained from ATCC; host or cells: H4IIE rat hepatoma cells
T1 sequence (P37230 1-468): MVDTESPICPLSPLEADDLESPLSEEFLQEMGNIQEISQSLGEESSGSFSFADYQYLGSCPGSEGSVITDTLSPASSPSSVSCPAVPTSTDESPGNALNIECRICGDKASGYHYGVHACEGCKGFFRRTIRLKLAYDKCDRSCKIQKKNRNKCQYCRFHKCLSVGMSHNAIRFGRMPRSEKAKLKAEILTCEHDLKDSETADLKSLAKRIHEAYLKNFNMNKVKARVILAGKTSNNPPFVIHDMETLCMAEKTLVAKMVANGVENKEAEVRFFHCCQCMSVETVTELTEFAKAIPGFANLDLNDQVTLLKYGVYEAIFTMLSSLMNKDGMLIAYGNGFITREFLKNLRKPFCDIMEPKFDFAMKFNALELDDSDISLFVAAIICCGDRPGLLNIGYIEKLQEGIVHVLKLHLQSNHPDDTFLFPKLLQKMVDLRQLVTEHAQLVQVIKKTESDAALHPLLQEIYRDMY
The test can be described thus: HD bDNA Assay (HD gene induction). The class given is cell-based. The note with it: in section F; target not named there, values match the PPARα column; read-out: EC50. The method in brief:
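H4IIE rat hepatoma cells (~100,000/well) treated 24 hours at 37° C in low-serum medium (5% charcoal/dextran-treated calf serum) with compounds. HD mRNA quantified by branched DNA luminescence assay; EC50's from sigmoidal non-linear regression.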

The target of the next test is T2, PPARγ (Homo sapiens, UniProt P37231).
T2 construct: Following the challenge of the preadipocytes, cells may be lysed with lysis buffer; endogenous in cells; host or cells: preadipocytes
T2 sequence (P37231 1-505): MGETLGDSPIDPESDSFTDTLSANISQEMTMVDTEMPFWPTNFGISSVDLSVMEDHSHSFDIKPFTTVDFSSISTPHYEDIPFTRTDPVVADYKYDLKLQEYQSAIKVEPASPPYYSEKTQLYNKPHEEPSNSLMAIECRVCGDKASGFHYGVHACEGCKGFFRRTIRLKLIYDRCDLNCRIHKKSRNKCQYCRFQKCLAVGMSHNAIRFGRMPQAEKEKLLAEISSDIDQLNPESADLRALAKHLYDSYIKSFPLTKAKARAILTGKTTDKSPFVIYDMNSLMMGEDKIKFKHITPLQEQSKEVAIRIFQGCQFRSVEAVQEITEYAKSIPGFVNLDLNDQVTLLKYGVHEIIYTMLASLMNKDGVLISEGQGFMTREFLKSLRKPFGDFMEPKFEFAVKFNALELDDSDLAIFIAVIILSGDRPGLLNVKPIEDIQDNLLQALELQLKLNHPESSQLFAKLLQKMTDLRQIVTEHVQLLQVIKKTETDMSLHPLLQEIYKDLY
Description: aP2 Assay for PPAR gamma Agonists (bDNA aP2 mRNA in preadipocytes). The class given is cell-based. The following applies: fold induction; PPARγ standard: FI = 70.3. An excerpt:
aP2 Assay for PPAR gamma Agonists
The procedure is described in detail in Burris et al., Molecular Endocrinology, 1999, 13:410, which is hereby incorporated by reference in its entirety, and aP2 assay results of agonist intrinsic activity may be presented as fold increase over vehicle in induction of aP2 mRNA production.
Twenty-four hours after the initial seeding of the 96-well plates by hand (around 20,000/well), the differentiation assay may be initiated. Medium may be removed and replaced with […] of differentiation medium containing vehicle (DMSO) or test compounds. Cells may be returned to incubator for 24 hours culture. At the termination of the challenge, medium may be removed and 100 ul of lysis buffer may be added to initiate the bDNA aP2 mRNA assay. The branched DNA assay may be performed according to the manufacturer's protocol (Bayer Diagnostics; Emeryville, Calif.). Result may be expressed as the fold increase of aP2 mRNA production activated over vehicle controls. EC50's and Emax may be determined by non-linear regression with a sigmoidal fit curve.
Following the challenge of the preadipocytes, cells may be lysed with lysis buffer (Bayer Diagnostics) containing the aP2 oligonucleotides. After a 15 minute incubation at 53° C. or 30 minutes at 37° C. incubator, 70 ul of the lysis buffer from each well may be added to a corresponding capture well (preincubated with 70 ul of blocking buffer (Bayer Diagnostics)). The capture plate may be incubated overnight at 53° C. in a plate incubator (Bayer Diagnostics). After this incubation, the bDNA and labeled probes may be annealed as directed by the manufacturer. Following a 30-minute incubation with the luminescent alkaline phosphatase substrate, dioxitane, the luminescence may be quantitated in a Dynex MLX microtiter plate luminometer. Oligonucleotide probes designed to anneal to the aP2 mRNA and function in the bDNA mRNA detection system are designed with ProbeDesigner software (Bayer Diagnostics). This software package analyzes a target sequence of interest with a series of algorithms in order to determine which regions of the sequence can perform as locations for capture, label, or spacer probe annealing. The sequences of the oligonucleotides are as follows: […]

The next test deals with T3, PPARδ (Homo sapiens, UniProt Q03181).
T3 construct: a Gal4-Luciferase reporter is co-transfected
T3 sequence (Q03181 171-441 limits assumed): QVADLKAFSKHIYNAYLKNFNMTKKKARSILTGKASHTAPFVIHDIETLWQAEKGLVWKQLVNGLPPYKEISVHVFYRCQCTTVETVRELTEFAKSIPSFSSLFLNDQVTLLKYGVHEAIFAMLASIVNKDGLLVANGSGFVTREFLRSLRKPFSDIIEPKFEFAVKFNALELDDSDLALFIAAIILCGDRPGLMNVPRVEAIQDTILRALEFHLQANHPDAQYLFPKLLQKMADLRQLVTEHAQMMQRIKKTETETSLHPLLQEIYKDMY
The test can be described thus: Transfection Assay for PPARδ Receptors (PPAR-Gal4 / Gal4-Luciferase reporter in HEK293 cells). The following applies: fold induction; PPARδ standard: FI = 36.1. The format is cell-based. Summed up:
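HEK293 cells co-transfected with PPAR-Gal4 receptor and Gal4-luciferase reporter, then moved into 5% charcoal-treated FBS medium. Compounds applied for 24 h at 37 °C, 5% CO2; luciferase activity read with Steady-Glo.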
For orientation: Reporter assays use an easily measured gene product as a stand-in for the process of interest.

Test [1] is described as follows: Comparison of (S) and (R) isomer activity (test not stated). The following applies: chiral center on C-2 of the indane ring.
[2] abbreviates: 120 h, 5 day oral dosing, read-out: Δ BW.
[3] abbreviates: 120 h, 5 day oral dosing, read-out: Δ Plasma Glucose.
Where [4] appears, read: 120 h, 5 day oral dosing, read-out: Δ Plasma Insulin.
[5] abbreviates: 120 h, 5 day oral dosing, read-out: Δ Plasma TG.

Molecules are shown by their SMILES. Read-outs that look alike come from different tables or passages of the source.

In the case of `CCN(C(=O)Nc1ccc(OC(F)(F)F)cc1)C1Cc2ccc(SC(C)(C)C(=O)O)cc2C1` (centres unmarked) [Example 2, 2-{2-[1-Ethyl-3-(4-trifluoromethoxyphenyl)ureido]indan-5-ylsulfanyl}-2-methylpropionic acid], the change in vivo at 1 mg/kg in the test on db/db mice (setting [2]) was -59%; with db/db mice (264 h, 11 day oral dosing, read-out: Δ Plasma Glucose), -60%; in the test with db/db mice (264 h, 11 day oral dosing, read-out: Δ Plasma Insulin), -53%; with db/db mice (264 h, 11 day oral dosing, read-out: Δ Plasma TG), -56%. For the same molecule, at PPARα, the EC50 turned out to be 27 nM. In addition, on PPARγ, the “PPARγ FI” value is 0.24. Besides, the “PPARδ FI” value at PPARδ is reported as 4.2.

`CCN(C(=O)Nc1ccc(OC(F)(F)F)cc1)[C@H]1Cc2ccc(SC(C)(C)C(=O)O)cc2C1` [Example 3, (S)-2-{2-[1-Ethyl-3-(4-trifluoromethoxyphenyl)ureido]indan-5-ylsulfanyl}-2-methylpropionic acid]: the change in vivo at 1 mg/kg is -66% in the test on db/db mice (setting [3]); -69% in the test with db/db mice (setting [4]); -66% with db/db mice (setting [5]); -136% in the test with db/db mice (264 h, 11 day oral dosing, read-out: Δ BW). For the same molecule, in test [1], the “activity of the (S) isomer compared with the (R) isomer” value is on record as “the (S) isomer is more active than the (R) isomer”.

As for `CCCCCN(C(=O)Nc1ccc(SC(F)(F)F)cc1)C1Cc2ccc(SC(C)(C)C(=O)O)cc2C1` (centres unmarked) [Example 5, 2-Methyl-2-{2-[1-pentyl-3-(4-trifluoromethylsulfanylphenyl)ureido]indan-5-ylsulfanyl}propionic acid], the change in vivo at 1 mg/kg is 56% in the test on db/db mice (setting [2]), -31% with db/db mice (setting [3]), -43% with db/db mice (setting [4]) and -19% in the test on db/db mice (setting [5]). For the same molecule, on PPARα, the EC50 was 53 nM. Also, the “PPARγ FI” value on PPARγ is reported as 4.0. At PPARδ, the “PPARδ FI” value is given as 2.5.

With `CCN(C(=O)Nc1ccc(C(C)C)cc1)C1Cc2ccc(SC(C)(C)C(=O)O)cc2C1` (centres unmarked) [Example 6, 2-{2-[1-Ethyl-3-(4-isopropylphenyl)ureido]indan-5-ylsulfanyl}-2-methylpropionic acid], the change in vivo at 1 mg/kg in the test with db/db mice (setting [2]) is -54%; in the test on db/db mice (setting [3]) it was -49%; in the test with db/db mice (setting [4]) it was -19%; in the test with db/db mice (setting [5]), -50%. Moreover, the EC50 at PPARα was 56 nM. In addition, the “PPARγ FI” value on PPARγ is 1.9. At PPARδ, the “PPARδ FI” value turned out to be 3.6.

On to `CCN(C(=O)Nc1ccc(N(C)C)cc1)C1Cc2ccc(SC(C)(C)C(=O)O)cc2C1` (centres unmarked) [Example 7, 2-{2-[3-(4-Dimethylaminophenyl)-1-ethylureido]indan-5-ylsulfanyl}-2-methylpropionic acid], for which the change in vivo at 1 mg/kg was -27% in the test with db/db mice (setting [2]), -44% in the test on db/db mice (setting [3]), -40% in the test on db/db mice (setting [4]) and -63% in the test with db/db mice (setting [5]). Moreover, the EC50 on PPARα was 75 nM. Also, the “PPARγ FI” value on PPARγ came to 0. Also, on PPARδ, the “PPARδ FI” value was found to be 0.8.

As for `CCCCCN(C(=O)Nc1ccc(OC(F)(F)F)cc1)C1Cc2ccc(SC(C)(C)C(=O)O)cc2C1` (centres unmarked) [Example 8, 2-Methyl-2-{2-[1-pentyl-3-(4-trifluoromethoxyphenyl)ureido]indan-5-ylsulfanyl}-2-methylpropionic acid], the change in vivo at 1 mg/kg with db/db mice (setting [2]) is -2%; with db/db mice (setting [3]), -28%; with db/db mice (setting [4]) it was -38%; with db/db mice (setting [5]), -27%. The EC50 on PPARα is 73 nM. Besides, the “PPARγ FI” value at PPARγ is given as 1.9. Besides, the “PPARδ FI” value at PPARδ was determined as 5.9.

With `CCCCCN(C(=O)Nc1ccc(N(C)C)cc1)C1Cc2ccc(SC(C)(C)C(=O)O)cc2C1` (centres unmarked) [Example 9, 2-{2-[3-(4-Dimethylaminophenyl)-1-pentylureido]indan-5-ylsulfanyl}-2-methylpropionic acid], the change in vivo at 1 mg/kg is 0.05% in the test with db/db mice (setting [2]), -13% in the test with db/db mice (setting [3]), -40% in the test on db/db mice (setting [4]) and -6% in the test on db/db mice (setting [5]). Moreover, the concentration giving a half-maximal response (EC50) on PPARα turned out to be 131 nM. Besides, the “PPARγ FI” value at PPARγ was found to be 2.9. Further, the “PPARδ FI” value on PPARδ is 1.0.

The EC50 is the concentration that produces a half-maximal response.
